In experiment [1] the test system is TGF-beta 1 stimulated SBE-bla HEK 293T. As to the kind of experiment: GeneBLAzer beta-lactamase (bla) reporter, TGF-beta 1 stimulated SBE-bla HEK 293T cell-based assay (ThermoFisher SelectScreen). The following applies: Homo sapiens; SBE-bla HEK 293T cells; 30 minutes pre-incubation with inhibitor; TGF-beta 1 0.03 nM, 5 hours; inhibitor 10,000nM to 0.316nM; read-out: Cells (SBE_HEK293T) IC50. From the text: (§1) Table 2, below, describes the results of assays carried out on some compounds provided by the present disclosure. Exemplified compounds are confirmed to inhibit ALK5 activity in enzyme and cellular assays in the following assay systems conducted by ThermoFisher in Madison, WI according to their commercially available protocols.
ThermoFisher SelectScreen™ Cell-based Pathway Profiling Service GeneBLAzer Beta-lactamase (bla) Reporter Technology - TGF-beta 1 stimulated SBE-bla HEK 293T Cell-based Assay
SBE-bla HEK 293T cells are thawed and re-suspended in Assay Media (OPTI-MEM, 0.5% dialyzed FBS, 0.1 mM NEAA, 1 mM Sodium Pyruvate, 100 U/mL/100 µg/mL Pen/Strep) to a concentration of 625,000 cells/mL. 32 µL of cell suspension (20,000 cells) is added to each well of a 384-well Poly-D-Lysine assay plate. Cells in Assay Media are incubated for 16-24 hours in the plate at 37°C/5% CO2 in a humidified incubator. 4 µL of a 10X serial dilution of ALK5 inhibitors (10x = 100,000-3.16 nM) is added to appropriate wells of the plate and pre-incubated at 37°C/5% CO2 in a humidified incubator with cells for 30 minutes. Final concentration of inhibitor ranged from 10,000nM to 0.316nM. 4 µL of 10X TGF-beta 1 (final concentration of 0.03 nM) is added to wells containing the inhibitors. The plate is incubated for 5 hours at 37°C/5% CO2 in a humidified incubator. 8 µL of 1 µM Substrate Loading Solution is added to each well and the plate is incubated for 2 hours at room temperature before being read on a fluorescence plate reader. Percent inhibition is determined compared to DMSO only control (maximal TGF-beta 1 stimulation) and sigmoidal dose response curve fit yielded IC50 values as indicated in Table 2. TABLE 2: Biological activity assay results

The next experiment addresses T1, TGFBR1 (ALK5) (Homo sapiens, UniProt P36897).
T1 sequence (P36897 34-503): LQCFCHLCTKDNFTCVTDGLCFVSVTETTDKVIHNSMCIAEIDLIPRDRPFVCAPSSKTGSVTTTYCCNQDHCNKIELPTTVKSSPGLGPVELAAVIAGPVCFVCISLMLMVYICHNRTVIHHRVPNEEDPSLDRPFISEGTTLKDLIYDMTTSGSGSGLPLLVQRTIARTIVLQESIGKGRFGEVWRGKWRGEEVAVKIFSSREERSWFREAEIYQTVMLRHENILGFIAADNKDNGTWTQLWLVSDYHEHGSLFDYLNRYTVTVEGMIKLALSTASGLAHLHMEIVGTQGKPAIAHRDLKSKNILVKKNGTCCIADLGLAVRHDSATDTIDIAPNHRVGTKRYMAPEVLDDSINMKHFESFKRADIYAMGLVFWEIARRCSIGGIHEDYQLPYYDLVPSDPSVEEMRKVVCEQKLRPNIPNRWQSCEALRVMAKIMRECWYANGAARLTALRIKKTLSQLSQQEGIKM
Description: LanthaScreen Eu Kinase Binding Assay TGFBR1 (ALK5) (ThermoFisher SelectScreen). To be noted: ALK5 5 nM, Tracer #178 5 nM, Eu-anti-GST antibody 2 nM, 1 hour at room temperature, 1% DMSO; read-out: TβRI (ALK5) Binding IC50.
Excerpt: as §1
ThermoFisher SelectScreen™ Biochemical Kinase Profiling Service, LanthaScreen™Eu Kinase Binding Assay TGFBR1 (ALK5)
Exemplified compounds are screened in 1% DMSO (final concentration) by 3-fold serial dilutions from 10,000 nM to 0.316 nM or at single concentrations of 10,000, 1000 and 100 nM according to the following protocol. To low volume, white 384-well plates (Greiner Cat#784207) add 160 nL 100x compound in 100% DMSO, 3.84 uL kinase buffer (50 mM HEPES, pH 7.5, 0.01% BRIJ-35, 10 mM MgCl2, 1 mM EGTA), 8 uL 2x kinase/antibody mixture in kinase buffer (final ALK5 concentration of 5 nM; final Eu-anti-GST antibody concentration of 2 nM), 4 uL 4x Tracer #178 in kinase buffer (final concentration of 5 nM). Gently shake the plates for 30 seconds and incubate at room temperature for 1 hour before reading fluorescence on a plate reader. Percent inhibition is determined compared to DMSO only control (maximal ALK5 tracer binding) and sigmoidal dose response curve fit yielded IC50 values as indicated in Table 2.
(TR-FRET usually uses a lanthanide donor and a delayed reading to cut background.)

On to `CC(C)n1ccc(-c2nc3occn3c2-c2ccc3nc[nH]c(=O)c3c2)n1` [Compound 23, 6-{7-(1-Isopropyl-1H-pyrazol-3-yl)-4-oxa-1,6-diazabicyclo[3.3.0]octa-2,5,7-trien-8-yl}-3H-quinazolin-4-one], for which the values for the IC50 (in experiment [1]; at TGFBR1 (ALK5)) were 239 nM and 5.2 nM, respectively.
In the same order, the values of `O=c1[nH]cnc2ccc(-c3c(-c4ccn(CC(F)F)n4)nc4n3CCC4)cc12` [Compound 49, 6-{3-[1-(2,2-Difluoroethyl)-1H-pyrazol-3-yl]-1,4-diazabicyclo[3.3.0]octa-2,4-dien-2-yl}-3H-quinazolin-4-one] are 2400 nM and 52 nM.
In the same order, the values of `CC(C)n1ccc(-c2nc3occn3c2-c2ccc3ncn(C)c(=O)c3c2)n1` [Compound 25, 6-{7-(1-Isopropyl-1H-pyrazol-3-yl)-4-oxa-1,6-diazabicyclo[3.3.0]octa-2,5,7-trien-8-yl}-3-methyl-3H-quinazolin-4-one] are 238 nM and 7.2 nM.

(Values after EP3840748B1, “SUBSTITUTED IMIDAZOLES FOR THE INHIBITION OF TGF-BETA AND METHODS OF TREATMENT” (Clavius Pharmaceuticals, LLC, priority 2018, dated 2020).)
